Experimental data: patent US10351501B2, “Gem difluorocompounds as depigmenting or lightening agents” (TFCHEM, priority 2015, dated 2019)
pIC50: −log10 of the molar value. Where two headings read alike, the source gives them in different places.

Legend:
[1] = In vitro stability: hydroquinone released in various chemical conditions (HPLC-UV/DAD); format: physicochemical
Method: The stability of compound 11 was evaluated by the released of hydroquinone, which is a potentially toxic compound, in different chemical conditions (extreme conditions, simulating the application of these molecules on the skin) and it was compared to the deoxyarbutin.
This study involved different tests as degradation test and chemical stability (various chemical solutions, pH and temperatures).
Analytical Method (HPLC-UV/DAD Method)
Column Atlantis dC18 150 mm*4.6 mm*3 μm Waters, 30° C. Injection 50 μl, 25° C. λ: 220 nm, 265 nm, 285 nm. A-Acetonitrile B-Water; 0.8 ml/min; elution gradient: […]
This analytical method gave linear response for compound 11, Deoxyarbutin and Hydroquinone from 25 ng/mL to 1000 ng/mL. Dilution of samples had to be taken into account for each stability study to calculate the LLOQ of each compound.
The tested compounds are incubated in different solutions, at different times (see table 1). Then the analytical method was used to quantify remaining compounds and potential hydroquinone released (as possible degradation of compounds).
Hydroquinone (HQ) apparition is expressed as a percentage of initial compound 11 or Deoxyarbutin. The calculation was done in molar units and the limit of quantification fluctuates with the initial concentration.

[2] = molecular target: T1, human recombinant tyrosinase (Homo sapiens, UniProt P14679); assay: Inhibition of human tyrosinase in tubo (L-DOPA substrate, OD at 477 nm), IC50; format: biochemical
T1 sequence (P14679 19-529): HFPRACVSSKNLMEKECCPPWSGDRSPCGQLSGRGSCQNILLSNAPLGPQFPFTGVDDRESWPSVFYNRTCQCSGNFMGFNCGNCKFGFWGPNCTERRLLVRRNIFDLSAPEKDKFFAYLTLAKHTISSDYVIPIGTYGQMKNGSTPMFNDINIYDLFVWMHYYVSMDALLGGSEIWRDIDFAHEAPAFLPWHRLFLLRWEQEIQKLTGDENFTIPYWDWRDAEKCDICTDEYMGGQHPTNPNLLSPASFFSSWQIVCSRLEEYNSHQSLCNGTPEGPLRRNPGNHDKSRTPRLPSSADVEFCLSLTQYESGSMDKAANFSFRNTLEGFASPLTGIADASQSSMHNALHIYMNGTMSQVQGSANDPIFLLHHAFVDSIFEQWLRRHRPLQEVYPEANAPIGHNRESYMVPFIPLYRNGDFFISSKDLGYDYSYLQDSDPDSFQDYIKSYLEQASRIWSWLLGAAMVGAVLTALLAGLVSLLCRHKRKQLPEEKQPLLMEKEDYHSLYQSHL
Method: Substrate solution: L-DOPA (1 mg/mL) Solution B (L-DOPA 20 mg/Purified water up to 20 mL)
Preparation of Test Solutions (for IC50 Test—Examples for Deoxyarbutin)
Inhibitors solutions deoxyarbutin (1 mg/mL): Deoxyarbutin 20 mg in purified water up to 20 mL
This assay used a 96-well plate. Test solutions and controls were made several times.
The results were calculated from the OD measured at time point 20 min.
The determination of half maximal inhibitory concentration (IC50) was performed using the following formula.

[3] = In vitro human skin absorption, Franz diffusion cell: quantification in skin fractions (epidermis, dermis); format: in vitro ADME; conditions: emulsion 0.1 mg/mL, 200 μL, T24 h
From the text: The aim of this study was to evaluate the absorption of compound 11 applied to excised human skin.
In vitro method using a Franz diffusion cell allows measuring the diffusion of chemicals into and across skin.
The tested compound is applied to the surface of a human skin explant separating the two chambers of a Franz diffusion cell. The compound remains on the skin for a specified time under specified conditions. The receptor fluid is sampled at time points throughout the experiment and analyzed for the tested compound. The skin may also be fractioned for separate analysis in epidermis or dermis layers.
The transcutaneous absorption was measured on human skin collected from the abdominoplasty of a single donor. […]
The tested compounds were quantified, at T0 h and T24 h in the receptor solution bathing the inner surface of the skin (determination of flux), or at T24 h in the fractionated skin extracts (epidermis or dermis).
To prepare the extracts, the skin explant is firstly divided in dermis and epidermis layers, then 500 μL of methanol were added on each piece of skin and incubated in an ultrasonic bath for 4 hours. […] Secondly the quantification of compounds by LC-MS/MS method was realized on 100 μl of the previous preparation added with 1000 μl of ultrapure water and 10 μl of an internal standard […]
The skin extracts were prepared at T24 h and the quantification of compound 11 was performed. […]

% Hydroquinone released ([1]; Ringer's solution pH 5.5 at 70° C., 24 H): 0.00%
% Hydroquinone released ([1]; Ringer's solution pH 8.5 at 70° C., 24 H): 0.00%
% Hydroquinone released ([1]; Synthetic perspiration at RT, 48 H): 0.00%
% Hydroquinone released ([1]; Water at room temperature, 14 Days): 0.00%
Hydroquinone release ([1]; whatever the tested conditions): never released
IC50 ([2]; Tyrosinase Concentration 300 U/mL, mean of 4 tests, read-out: Calculated IC50 Mean (converted)): 35.1 µM
pIC50 ([2]; Tyrosinase Concentration 300 U/mL, read-out: IC50): 4.46
IC50 ([2]; Tyrosinase Concentration 300 U/mL, time 20 min, read-out: Calculated IC50 Test #1 (converted)): 35.1 µM
IC50 ([2]; Tyrosinase Concentration 300 U/mL, time 20 min, read-out: Calculated IC50 Test #2 (converted)): 35.1 µM
IC50 ([2]; Tyrosinase Concentration 300 U/mL, time 20 min, read-out: Calculated IC50 Test #3 (converted)): 35.1 µM
IC50 ([2]; Tyrosinase Concentration 300 U/mL, time 20 min, read-out: Calculated IC50 Test #4 (converted)): 35.1 µM
inhibits the human recombinant tyrosinase, times more than the Deoxyarbutin ([2]; comparison of IC50): 7-8 times
Quantity in skin extract ([3]; DERMIS): 5.1 μg/g of tissue
Quantity in skin extract ([3]; EPIDERMIS): 22.3 μg/g of tissue
Structure (SMILES): Oc1ccc(OC2CCCCC2(F)F)cc1 (racemic) [Compound 11]
